Test results from patent US20230011869A1 (Hoffmann-La Roche Inc., priority 2018, published 2023).
Where a name gives a salt, the structure may show the parent alone. Read-outs that look alike come from different tables or passages of the source.

Tested on: Acinetobacter baumannii ATCC17978
Test: Antimicrobial susceptibility testing: 90% growth inhibitory concentration (IC90) determination, Iso-Sensitest broth
Assay type: cell-based
Procedure: Antimicrobial Susceptibility Testing:
90% Growth Inhibitory Concentration (IC90) Determination
The in vitro antimicrobial activity of the compounds was determined according to the following procedure:
The assay used a 10-points Iso-Sensitest broth medium to measure quantitatively the in vitro activity of the compounds against Acinetobacter baumannii ATCC17978 and Acinetobacter baumannii ATCC17961.
Microtiter plates were incubated at 35±2° C.
Bacterial cell growth was determined with the measurement of optical density at λ=600 nm each 20 minutes over a time course of 16 h. Growth inhibition was calculated during the logarithmic growth of the bacterial cells with determination of the concentration inhibiting 50% (IC50) and 90% (IC90) of the growth.

[1] = Acinetobacter baumannii, ATCC17978, 16 h, read-out: ATCC17978 IC90, 90% growth inhibitory concentration, Acinetobacter baumannii ATCC17978, Iso-Sensitest broth, OD 600 nm over 16 h
[2] = 90% growth inhibitory concentration, Acinetobacter baumannii ATCC17978, Iso-Sensitest broth, OD 600 nm over 16 h, read-out: ATCC17978 IC90

IC90 [2] | Structure (SMILES) | IC90 [1] | further results
540 nM | Cc1cc(Nc2nccn3c(-c4ccc(OC5CC5)c(Cl)c4)cnc23)ccc1C(=O)N1CCC(CN)CC1 [Example 117, [4-(aminomethyl)-1-piperidyl]-[4-[[3-[3-chloro-4-(cyclopropoxy)phenyl]imidazo[1,2-a]pyrazin-8-yl]amino]-2-methyl-phenyl]methanone formate] |  | 
900 nM | Cc1cc(Nc2nccn3c(-c4ccc(OCc5cccnc5)c(F)c4F)cnc23)ccc1C(=O)N1CCC(CN)CC1 [Example 124, [4-(aminomethyl)-1-piperidyl]-[4-[[3-[2,3-difluoro-4-(3-pyridylmethoxy)phenyl]imidazo[1,2-a]pyrazin-8-yl]amino]-2-methyl-phenyl]methanone formate] |  | 
910 nM | Cc1cc(Nc2nccn3c(-c4ccc(OCc5ccncc5)c(F)c4F)cnc23)ccc1C(=O)N1CCC(CN)CC1 [Example 127, [4-(aminomethyl)-1-piperidyl]-[4-[[3-[2,3-difluoro-4-(4-pyridylmethoxy)phenyl]imidazo[1,2-a]pyrazin-8-yl]amino]-2-methyl-phenyl]methanone formate] |  | 
88 nM | Cc1cc(Nc2nccn3c(-c4ccc(OCC#N)c(F)c4Cl)cnc23)ccc1C(=O)N1CCC(C(=O)N2CCN[C@@H](CO)C2)CC1 [Example 539, 2-[3-chloro-2-fluoro-4-[8-[4-[4-[(3R)-3-(hydroxymethyl)piperazine-1-carbonyl]piperidine-1-carbonyl]-3-methylanilino]imidazo[1,2-a]pyrazin-3-yl]phenoxy]acetonitrile; for-mic acid] |  | 
250 nM | COc1ccc(-c2cnc3c(Nc4ccc(C(=O)N5CCN(C(=O)[C@@H]6CCN6)CC5)c(C)c4)nccn23)cc1F [Example 175, [4-[(2S)-azetidine-2-carbonyl]piperazin-1-yl]-[4-[[3-(3-fluoro-4-methoxy-phenyl)imidazo[1,2-a]pyrazin-8-yl]amino]-2-methyl-phenyl]methanone] |  | 

Further lines, the molecule ahead of its results:

Structure (SMILES) | IC90 [2] | IC90 [1] | further results
Cc1cc(Nc2nccn3c(-c4ccc(OC(F)F)cc4)cnc23)ccc1C(=O)N1CCC(C(=O)N2C3CCC2CNC3)CC1 [Example 318, [4-(3,8-diazabicyclo[3.2.1]octane-8-carbonyl)piperidin-1-yl]-[4-[[3-[4-(difluoromethoxy)phenyl]imi-dazo[1,2-a]pyrazin-8-yl]amino]-2-methylphenyl]methanone; hy-drochloride] |  | 250 nM | 
CNCCNC(=O)C1CCN(C(=O)c2ccc(Nc3nccn4c(-c5ccc(OC(F)F)cc5)cnc34)cc2C)CC1 [Example 358, 1-[4-[[3-[4-(difluoromethoxy)phenyl]imi-dazo[1,2-a]pyrazin-8-yl]amino]-2-methylbenzoyl]-N-[2-(methylamino)ethyl]piperidine-4-carboxamide; hydrochloride] |  | 340 nM | 
Cc1cc(Nc2nccn3c(-c4ccc(OC(F)F)cc4)cnc23)ccc1C(=O)N1CCN(C(=O)c2cccc(S(=O)(=O)O)c2)CC1 [Example 276, 3-[4-[4-[[3-[4-(difluoromethoxy)phenyl]imi-dazo[1,2-a]pyrazin-8-yl]amino]-2-methylbenzoyl]piperazine-1-carbonyl]benzenesulfonic acid] |  | 3300 nM | 
CNCC(=O)N1CCN(C(=O)c2ccc(Nc3nccn4c(-c5ccc(OC(F)F)cc5)cnc34)cc2C)CC1 [Example 331, 1-[4-[4-[[3-[4-(difluoromethoxy)phenyl]imi-dazo[1,2-a]pyrazin-8-yl]amino]-2-methylbenzoyl]piperazin-1-yl]-2-(methylamino)ethanone] |  |  | IC90 (read-out: ATCC17978 IC90, 90% growth inhibitory concentration, Acinetobacter baumannii ATCC17978, Iso-Sensitest broth, OD 600 nm over 16 h): 410 nM
COc1ccc(-c2cnc3c(Nc4ccc(C(=O)N5CCN(C(=O)N6CCN[C@H](C(=O)O)C6)CC5)c(C)c4)nccn23)c(F)c1F [Example 515, (2S)-4-[4-[4-[[3-(2,3-difluoro-4-methoxyphenyl)imidazo[1,2-a]pyrazin-8-yl]amino]-2-methylbenzoyl]piperazine-1-carbonyl]piperazine-2-carboxylic acid; formic acid] |  | 650 nM | 
